Values quoted from earlier work in patent US20250339403A1, “Tryptamine Formulations and Uses Thereof” (Natural MedTech Pty Ltd, priority 2022, published 2025).
Where two headings read alike, the source gives them in different places.

Columns and labels:
[1] = not given; remark: listed apart in the source
[2] = in vivo
MAO = settings: after administration
[3] = weight-to-weight basis

Structure (SMILES): CN(C)CCc1c[nH]c2ccccc12 [DMT, N,N-dimethyltryptamine]
- psychotropic effects (after oral consumption): not experienced
- psychotropic effects (after smoking an equivalent dose): noted
- effectiveness (inhaled free-base DMT (0.07-0.28 mg/kg)): have not shown effectiveness
- effectiveness (rectally administered (1.7 mg/kg of the bioxalate salt)): have not shown effectiveness
- share of recovered compounds that was DMT-N-oxide (DMT-NO) ([1]; after oral administration): 3%
- share of recovered compounds that were MAO-dependent IAA ([1]; after oral administration): 97%
- unmetabolized DMT in blood samples and urine ([1]; after oral administration): no unmetabolized DMT
- share of recovered metabolites that were MAO-dependent IAA ([1]; smoking DMT): 63%

Structure (SMILES): COc1ccc2[nH]cc(CCN(C)C)c2c1 [Formulation 5-MeO-DMT, 5-methoxy-N,N-dimethyltryptamine]
- amount required to induce hallucinations (inhalation): 6 to 20 mg
- amount required to induce hallucinations (intravenous injection): 0.7 to 3.1 mg
- amount required to induce hallucinations (oral administration): ~30 mg
- amount required to induce hallucinations (sublingual or intranasal insufflation): ~10 mg

Structure (SMILES): O=C(NCCN1CCOCC1)c1ccc(Cl)cc1 [Moclobemide, 4-chloro-N-(2-morpholin-4-ylethyl)benzamide]
- half-life [2]: about 2 hours
- time by which inhibition of MAO is completely absent (MAO): ≤ 24 h

Structure (SMILES): CN(C)CCc1c[nH]c2cccc(O)c12 [Psilocin, 3-[2-(dimethylamino)ethyl]-1H-indol-4-ol]
- potency relative to psilocybin [3]: about 1.4 times
